Laboratory results from patent US20230405003A1, “APPLICATION OF THYMIDINE DERIVATIVE IN PREPARATION OF DRUGS” (ONQUALITY PHARMACEUTICALS CHINA LTD., priority 2020, published 2023).

Tests used:
[1] = system: 5-FU-induced diarrhea in Balb/c mice; assay: 5-FU-induced diarrhea mouse model (70 mg/kg/d i.p. for three days); type: in vivo; conditions: 5-FU 70 mg/kg/d i.p. three days; for Food Uptake / Survival Rate / Diarrhea Grade: 12 days; for Diarrhea Grade: score 0-4; for Δ % BW on Day 9: (BW day 0 − BW day 9)/BW day 0, ± SEM
Description: Male Balb/c mice (7-8 weeks, 23-25 g) were i.p. injected at a dose of 70 mg/kg/d, and the injection was performed for three days. The mice in the group of blank was injected with 0.9% NaCl, and evaluated for the effect by observing the change of diarrhea grade, food uptake, and weight change. The severity of diarrhea was scored in accordance with the following standards: 0: normal feces, 1: soft feces, 2: slightly wet, soft feces, 3: wet, unformed feces, with moderate coloration in perianal region, 4: watery feces with heavy coloration of hair in perianal region. The severity of diarrhea was evaluated by occurrence scores of various grades of diarrhea (Scores 0 to 4) and average score of diarrhea. […] The models were stable, and satisfied the experimental requirements.
The male Balb/c mice (7-8 weeks, 23-25 g) were fed and adapted for 1 week, and then divided into groups, with 10 mice in each group for administration test. 5-FU was dissolved in a 0.9% NaCl solution, and the mice in the model group and the treatment group were all i.p. injected at a dose of 70 mg/kg/d. The administration doses are shown in Table 6, and the modeling was completed in three days. While modeling of injection administration of 5-FU, the thymidine derivative or the combination of thymidine derivative and uridine derivative was administered by gavage, a series of compounds were dissolved in a PBS solution containing 5% DMSO+1% HPMC. The mice were daily observed for counting the diarrhea status, food uptake, weight change (A % BW) (the weight changes recorded in the table is the value on Day 9) and other information. After 12 days, the experiments were completed and statistically analyzed for the results.

[2] = system: hand-foot syndrome caused by Acelarin (NUC-1031) in rats; assay: Rat model of hand-foot syndrome caused by Acelarin (NUC-1031), gel application; type: in vivo; conditions: Acelarin (NUC-1031) 130 mg/kg intraperitoneal injection twice a week, gel 3 wt%, 30 days
Description: (§1) After SD rats were fed and adapted for one week (about 200 g), the rats were divided into groups, with 10 rats in each group. Then, the rats were subject to gavage administration. Capecitabine was dissolved in a 1:1 mixed solution of castor oil and ethanol and diluted for three times with PBS buffer. After gavage, the rats were fixed with a fixed cylinder, and a gel of thymidine derivative (or a compounded gel of thymidine derivative and uridine derivative) was applied to double hind paws (about 1 cm*3 cm) of the rats in group of administration (the types and concentrations are shown in Table 4), and a blank gel was applied to the group of blank (as a blank control). After approximately 4 hours of application, the rats were released after 4 hours, wiped with clean water to remove any residual drug at the application site, and allowed back to the cage. The thymidine derivative gel (or the compounded gel of thymidine derivative and uridine derivative) was administered with gavage every day. The gavage and application tests are repeated daily until the group of blank has developed obvious hand-foot syndrome.
(§2) The effects of thymidine derivative or a combination of thymidine derivative and uridine derivative on the chemotherapeutic drug-induced hand-foot syndrome in a rat model were tested according to the method in Examples 30-40. At the same time, paws of rats after treatment with the drug were taken and observed for their inflammation by hematoxylin-eosin staining (HE) and immunohistochemical staining (IHC).
(§3) The test thymidine derivative or the combination of thymidine derivative and uridine derivative, as well as the final concentration of the test compounds were shown in Table 8. Table 8 lists the animal experiment combination of a chemotherapeutical drug and the thymidine derivative gel (or the compound gel of thymidine derivative and uridine derivative) and the corresponding experimental results (wherein, the data in the column of control rate=the occurrence rate of hand-foot syndrome in Group of blank—the occurrence rate of hand-foot syndrome in Group of administration).

[3] = system: hand-foot syndrome caused by Cytarabine in rats; assay: Rat model of hand-foot syndrome caused by cytarabine, gel application; type: in vivo; conditions: Cytarabine 120 mg/kg twice per day, 30 days
Description: as §1, §2, §3

[4] = system: hand-foot syndrome caused by Doxorubicin in rats; assay: Rat model of hand-foot syndrome caused by doxorubicin, gel application; type: in vivo; conditions: Doxorubicin 7 mg/kg tail intravenous injection once every three days for 20 days, gel 3 wt%, 30 days
Description: as §1, §2, §3

[5] = system: human colon cancer cell HCT116 xenograft; assay: Effect of thymidine derivative gel on therapeutical effect of capecitabine, HCT116 xenograft nude mice; type: in vivo, mouse; conditions: oral capecitabine 1.5 mmol/kg, 0.5% or 2% T1 gel on the back once per day, 14 days
Description: A BALB/C nude mouse (human colon cancer cell HCT116 xenograft) model was established. After the model was stable, the model mice were divided into four groups (in which the average tumor size of each of the 4 groups was kept as consistent as possible). Except the blank group (containing 5 mice), there were 10 mice in each group, which were subject to gavage and application experiments.
Capecitabine was dissolved in a mixed solution of castor oil:ethanol=1:1 (volume ratio). Prior to gavage, the mixture was diluted with PBS to the desired concentration (diluted for about 3 times with PBS solution). […]
A: Group of blank: 5 mice with tumors, no gavage and no drug application; B: blank group: 10 mice with tumors, oral gavage with capecitabine (1.5 mmol/kg), application with blank gel on the back (once per day for 14 days); C: 0.5% T1 group: 10 mice with tumors, oral gavage of capecitabine, application with 0.5% T1 gel (administration method and frequency are the same as those in group B); D: 2% T1 gel group: 10 mice with tumors, oral gavage of capecitabine, application of 2% T1 gel (administration method and frequency are the same as those in group B). […] The tumor size was measured and recorded every 2 days. After 14 days of the experiment, the mice were dissected to take out the tumor, which was weighed and recorded.

Which “Food Uptake” value ([1]; 50 mpk BID PO) does the source give for `CC(=O)OC[C@H]1O[C@@H](n2cc(C)c(=O)[nH]c2=O)C[C@@H]1O` [T3] here?
The value was 109.

What about the “Survival Rate” value ([1]; 50 mpk BID PO) of the same molecule?
The value was 70%.

What about the “Diarrhea Grade” value ([1]; 50 mpk BID PO) of the same molecule?
Its value is 1.6.

What about the “Δ % BW on Day 9” value ([1]; 50 mpk BID PO) of the same molecule?
Its value is 8.4% ± 3.2.

For `CC(=O)O[C@H]1C[C@H](n2cc(C)c(=O)[nH]c2=O)O[C@@H]1CO` [T2], which “Food Uptake” value ([1]; 75 mpk BID PO) is on record?
Its value is 123.

And the “Survival Rate” value ([1]; 75 mpk BID PO)?
Its value is 100%.

And the “Diarrhea Grade” value ([1]; 75 mpk BID PO)?
The value was 1.4.

And the “Δ % BW on Day 9” value ([1]; 75 mpk BID PO)?
The value was 6.6% ± 3.1.

With `Cc1cn([C@H]2C[C@H](O)[C@@H](COC(=O)[C@H](C)c3ccc(CC(C)C)cc3)O2)c(=O)[nH]c1=O` [T32] as the molecule, how does the “Control Rate Forepaws” value [2] read?
Its value is 50%.

And the “Control Rate Hindpaws” value [2]?
Its value is 62.50%.

What about the “Control Rate Forepaws” value ([3]; gel 2 wt%) of the same molecule?
The value was 33.33%.

What about the “Control Rate Hindpaws” value ([3]; gel 2 wt%) of the same molecule?
The value was 33.33%.

How did the “Control Rate Forepaws” value [4] turn out when `COc1ccc2cc([C@H](C)C(=O)OC[C@H]3O[C@@H](n4cc(C)c(=O)[nH]c4=O)C[C@@H]3O)ccc2c1` [T25] was run?
The value was 37.50%.

What about the “Control Rate Hindpaws” value [4] of the same molecule?
Its value is 62.50%.

And the “Control Rate Forepaws” value [2]?
The value was 57.14%.

And the “Control Rate Hindpaws” value [2]?
The value was 42.86%.

And the “Control Rate Forepaws” value ([3]; gel 3 wt%)?
Its value is 42.86%.

And the “Control Rate Hindpaws” value ([3]; gel 3 wt%)?
The value was 57.14%.

Which results are given for `CC(=O)OCC1OC(n2cc(C)c(=O)[nH]c2=O)CC1OC(C)=O` (stereo not drawn) [T1]?
tumor volume with T1 gel versus blank gel [5]: close to or slightly smaller than that of Group of blank gel; Food Uptake ([1]; 37 mpk BID PO): 155; Survival Rate ([1]; 37 mpk BID PO): 100%; Diarrhea Grade ([1]; 37 mpk BID PO): 1.4; Food Uptake ([1]; 75 mpk BID PO): 100; Survival Rate ([1]; 75 mpk BID PO): 80%; Diarrhea Grade ([1]; 75 mpk BID PO): 1.3; Food Uptake ([1]; 150 mpk BID PO): 89; Survival Rate ([1]; 150 mpk BID PO): 80%; Diarrhea Grade ([1]; 150 mpk BID PO): 1.5; Δ % BW on Day 9 ([1]; 37 mpk BID PO): 4.3% ± 3.7; Δ % BW on Day 9 ([1]; 75 mpk BID PO): 3.8% ± 1.6; Δ % BW on Day 9 ([1]; 150 mpk BID PO): 16.3% ± 6.5

`CC1=C(CC(=O)OC[C@H]2O[C@@H](n3cc(C)c(=O)[nH]c3=O)C[C@@H]2O)c2cc(F)ccc2/C1=C\c1ccc([S+](C)[O-])cc1` (stereo partly drawn) [T40] was tested. Which “Control Rate Forepaws” value [2] did it give?
Its value is 50%.

And the “Control Rate Hindpaws” value [2]?
The value was 62.50%.
